These results are taken from ChEMBL document CHEMBL1132089, “Probing the role of interfacial residues in a dimerization inhibitor of HIV-1 protease” (Bioorg Med Chem Lett, 1999).

The structures appear in SMILES notation. Where a SMILES comes first, the peptide text is derived from it. Bridges are numbered along the chain shown (N, C = ends). Roman numbers before positions name the chains, in order. The star is where a group is joined. C16 diacid = O=C(O)CCCCCCCCCCCCCCC(=O)*

The target in the assay is Human immunodeficiency virus type 1 protease (Human immunodeficiency virus 1) (UniProt Q72874). The assay is described as follows: Percent inhibition of HIV-1 protease at a concentration level of 25 nM relative to compound I was determined by UV absorbance.

Usually inhibition stands for the change of the read-out against control, counted positive when it falls. A lower inhibition goes with a weak effect. Turning to `CC[C@H](C)[C@H](NC(=O)[C@H](CCC(N)=O)NC(=O)[C@@H]1CCCN1C(=O)CCCCCCCCCCCCCCC(=O)N[C@@H](CO)C(=O)N[C@H](C(=O)N[C@@H](C)C(=O)N[C@@H](CC(N)=O)C(=O)N[C@@H](Cc1ccccc1)C(=O)O)[C@H](C)O)C(=O)N[C@H](C(=O)N[C@@H](CC(C)C)C(=O)N[C@@H](Cc1c[nH]c2ccccc12)C(=O)O)[C@@H](C)O`, the inhibition is 4.5%.

For `CC[C@H](C)[C@H](NC(=O)[C@H](CCC(N)=O)NC(=O)[C@@H]1CCCN1C(=O)CCCCCCCCCCCCCCC(=O)N[C@@H](C)C(=O)N[C@H](C(=O)N[C@@H](CC(C)C)C(=O)N[C@@H](CC(N)=O)C(=O)N[C@@H](Cc1ccccc1)C(=O)O)[C@H](C)O)C(=O)N[C@H](C(=O)N[C@@H](CC(C)C)C(=O)N[C@@H](Cc1c[nH]c2ccccc12)C(=O)O)[C@@H](C)O`, the inhibition was 1.1%.

`CC[C@H](C)[C@H](NC(=O)[C@H](CCC(N)=O)NC(=O)[C@@H]1CCCN1C(=O)CCCCCCCCCCCCCCC(=O)N[C@@H](CO)C(=O)N[C@H](C(=O)N[C@@H](CC(C)C)C(=O)N[C@@H](CC(N)=O)C(=O)N[C@@H](C)C(=O)O)[C@H](C)O)C(=O)N[C@H](C(=O)N[C@@H](CC(C)C)C(=O)N[C@@H](Cc1c[nH]c2ccccc12)C(=O)O)[C@@H](C)O`: the inhibition came to 3.5%.

`CC[C@H](C)[C@H](NC(=O)[C@H](CCC(N)=O)NC(=O)[C@@H]1CCCN1C(=O)CCCCCCCCCCCCCCC(=O)N[C@@H](CO)C(=O)N[C@@H](C)C(=O)N[C@@H](CC(C)C)C(=O)N[C@@H](CC(N)=O)C(=O)N[C@@H](Cc1ccccc1)C(=O)O)C(=O)N[C@H](C(=O)N[C@@H](CC(C)C)C(=O)N[C@@H](Cc1c[nH]c2ccccc12)C(=O)O)[C@@H](C)O` (I: PQITLW-OH / II: SALNF-OH; linker I:N-II:N via C16 diacid) came in with an inhibition of 3.3%.

For the molecule `CC[C@H](C)[C@H](NC(=O)[C@H](CCC(N)=O)NC(=O)[C@@H]1CCCN1C(=O)CCCCCCCCCCCCCCC(=O)N[C@@H](CO)C(=O)N[C@H](C(=O)N[C@@H](CC(C)C)C(=O)N[C@@H](CC(N)=O)C(=O)N[C@@H](Cc1ccccc1)C(=O)O)[C@H](C)O)C(=O)N[C@H](C(=O)N[C@@H](C)C(=O)N[C@@H](Cc1c[nH]c2ccccc12)C(=O)O)[C@@H](C)O`, the inhibition stood at 1.6%.

In turn, `CC[C@H](C)[C@H](NC(=O)[C@H](CCC(N)=O)NC(=O)[C@@H]1CCCN1C(=O)CCCCCCCCCCCCCCC(=O)N[C@@H](CO)C(=O)N[C@H](C(=O)N[C@@H](CC(C)C)C(=O)N[C@@H](C)C(=O)N[C@@H](Cc1ccccc1)C(=O)O)[C@H](C)O)C(=O)N[C@H](C(=O)N[C@@H](CC(C)C)C(=O)N[C@@H](Cc1c[nH]c2ccccc12)C(=O)O)[C@@H](C)O` had an inhibition of 1.9%.

In turn, `CC[C@H](C)[C@H](NC(=O)[C@H](CCC(N)=O)NC(=O)[C@@H]1CCCN1C(=O)CCCCCCCCCCCCCCC(=O)N[C@@H](CO)C(=O)N[C@H](C(=O)N[C@@H](CC(C)C)C(=O)N[C@@H](CC(N)=O)C(=O)N[C@@H](Cc1ccccc1)C(=O)O)[C@@H](C)O)C(=O)N[C@@H](C)C(=O)N[C@@H](CC(C)C)C(=O)N[C@@H](Cc1c[nH]c2ccccc12)C(=O)O` (I: PQIALW-OH / II: STLNF-OH; linker I:N-II:N via C16 diacid) showed an inhibition of 3.3%.

As for `CC[C@H](C)[C@H](NC(=O)[C@H](CCC(N)=O)NC(=O)[C@@H]1CCCN1C(=O)CCCCCCCCCCCCCCC(=O)N[C@@H](CO)C(=O)N[C@H](C(=O)N[C@@H](CC(C)C)C(=O)N[C@@H](CC(N)=O)C(=O)N[C@@H](Cc1ccccc1)C(=O)O)[C@@H](C)O)C(=O)N[C@H](C(=O)N[C@@H](CC(C)C)C(=O)N[C@@H](C)C(=O)O)[C@@H](C)O` (I: PQITLA-OH / II: STLNF-OH; linker I:N-II:N via C16 diacid), the inhibition came to 26%.

`CC[C@H](C)[C@H](NC(=O)[C@H](C)NC(=O)[C@@H]1CCCN1C(=O)CCCCCCCCCCCCCCC(=O)N[C@@H](CO)C(=O)N[C@H](C(=O)N[C@@H](CC(C)C)C(=O)N[C@@H](CC(N)=O)C(=O)N[C@@H](Cc1ccccc1)C(=O)O)[C@@H](C)O)C(=O)N[C@H](C(=O)N[C@@H](CC(C)C)C(=O)N[C@@H](Cc1c[nH]c2ccccc12)C(=O)O)[C@@H](C)O` (I: PAITLW-OH / II: STLNF-OH; linker I:N-II:N via C16 diacid) had an inhibition of 0.8%.

In turn, `CC(C)C[C@H](NC(=O)[C@@H](NC(=O)[C@H](CO)NC(=O)CCCCCCCCCCCCCCC(=O)N1CCC[C@H]1C(=O)N[C@@H](CCC(N)=O)C(=O)N[C@@H](C)C(=O)N[C@H](C(=O)N[C@@H](CC(C)C)C(=O)N[C@@H](Cc1c[nH]c2ccccc12)C(=O)O)[C@@H](C)O)[C@H](C)O)C(=O)N[C@@H](CC(N)=O)C(=O)N[C@@H](Cc1ccccc1)C(=O)O` displayed an inhibition of 2.7%.
